From US20090105149A1, “Compounds comprising lpa” (ENKAM PHARMACEUTICALS A/S, priority 2003, published 2009)

Key:
[1] = system: FGL-induced survival of CGN; assay: Effect of inhibitors of FGFR, MEK and PI3K on FGL-induced survival of CGN; format: cell-based, rat; details: 10 μg/ml FGLd, low KCl
Description: Thereafter the MEK inhibitor PD98059 ([…]), PI3K inhibitor LY294002 (▴) and FGFR inhibitor SU5402 (▪) were added at various concentrations. The addition of the inhibitors followed in all cases by the addition of 10 μg/ml FGLd. […] Results from at least four individual experiments are shown as percentage of the number of live neurons relative to the total number of neurons ±SEM, with control cultures treated with FGLd set at 100%.

[2] = system: FGL-induced neurite outgrowth in CGN cultures; assay: Effect of inhibitors of FGFR, MEK and PI3K on FGL-induced neurite outgrowth in CGN; format: cell-based, rat; details: for FGLd-induced neurite outgrowth in CGN in presence of inhibitor: FGLd-treated control = 100%
Description: CGN cultures were grown for 24 hours at a density of 10,000 cells/cm^2 on 8-well permanox slides in the presence of the FGL peptide and an inhibitor. PD98059 ([…]) was added at concentrations of 12.5, 25 and 50 μM simultaneously with 10 μg/ml FGLd; LY294002 (▴) was added at concentrations of 3.5, 7 and 10 μM simultaneously with 27 μg/ml FGLd. SU5402 (▪) was added in concentrations of 20, 40 and 80 μM simultaneously with 27 μg/ml FGLd. After the treatment cells were fixed and immunostained for GAP-43. Results from at least four independent experiments are shown as percentage ±SEM, with FGLd-treated control cultures set at 100%. The dashed line indicates the average neurite length in cultures without FGLd-treatment. *p<0.05, **p<0.01 when compared to the FGLd-treated controls.
(§1) Peptide solutions without or with inhibitors of various signal transduction pathways were added to a total volume of 300 μl/cm^2, and the slides were incubated at 37° C. After 24 hours, the neurons were fixed with 4% (v/v) formaldehyde for 20 minutes and thereafter immunostained using primary rabbit antibodies against GAP-43 and Alexa Fluor secondary goat anti-rabbit antibodies. Images of at least 200 neurons for each group in each individual experiment were obtained systematically by using computer assisted fluorescence microscopy as previously described (Rønn et al., 2000 op. cit.). Briefly, a Nikon Diaphot inverted microscope with a Nikon Plan 20× objective (Nikon, Tokyo, Japan) coupled to a video camera (Grundig Electronics, Germany) was used for recordings. The same software package as described above for the dopaminergic neurite outgrowth assay was used to process the recorded images.

[3] = system: FGL-induced neurite outgrowth in CGN cultures; details: previously found; cited from earlier work
[4] = system: organotypic hippocampal neuronal slice cultures (OHSC); assay: OGD, propidium iodide staining of OHSC; format: cell-based, rat; details: inhibitor together with FGLd
Text: (§2) In the present study it was investigated the effect of the FGL peptide on synaptic plasticity, neuronal function and vulnerability following oxygen and glucose deprivation (OGD) in organotypic hippocampal neuronal slice cultures (OHSC) from 7-day-old Wistar rats according to method of Stoppini et al. (1991) Neurosci Methods. 37:173-82 and primary cultures of dissociated hippocampal neurons from 1-day-old rats according to method of Maar et al. (1997) J Neurosci Res. 47:163-72. Primary cell cultures were maintained for 11-12 days and OHSC for 12-14 days prior to adding FGLd.
(§3) The primary cell cultures and OHSC were exposed to OGD for 10 and 20 minutes. Following OGD, the cultures were again supplied with oxygen and glucose and analysed at 1, 4 or 24 hour time point after introduction of OGD exposure. FGLd (or the control peptide FGLc) was added 24 hr before, immediately, or 1 hr or 24 hr after OGD. When administered prior to OGD, FGLd was removed from the medium when introducing OGD. In some cases, the slice cultures were treated with FGLd only at 4 hr after OGD. In addition, the FGFR inhibitor, SU5402 (25 μM), was added together with FGLd in some of the set-ups.
(§4) In hippocampal neuronal cultures, FM 1-43 staining was used to evaluate pre-synaptic function (described above). Cell viability in both primary cell cultures and OHSC was measured using the […] [3-(4,5-dimethylthiazol-2-yl)-2,5-diphenyltetrazolium bromide] assay according to Malich et al, (1997) Toxicology. 124:179-92. In, addition, cell viability in OHSC was measured using propidium iodide (PI) staining according to Laake et al. (1999) Brain Res Brain Res Protoc. 4:173-84.

hippocampal neurons [5] = assay: FM 1-43 destaining (presynaptic vesicle turnover) in hippocampal neurons; format: cell-based, rat; details: added simultaneously with FGLd
Description: The values were compared using an unpaired t-test. *p=0.04 (1 h) and **p=0.0032 (48 h). FGLcontrol is a control peptide consisting the sequence […] (SEQ ID NO: 147).
The effects of FGLd on vesicle turnover was estimated in primary cultures of hippocampal neurons from embryonic rats (E19). The cultures were prepared as above. Following 13-16 days in vitro, FGLd was added to the cultures and incubated for 1, 24 or 48 hours. After 48 hours of incubation, the FGFR-inhibitor (SU 5402) was added simultaneously with FGLd to some of the cultures.
After treatment with FGLd the neurons were labeled with the fluorescent membrane probe FM 1-43 as described by Kiryushko et al (2003) J Biol. Chem. 278:12325-34. The rate of FM 1-43 release (destaining of cells) evoked by depolarisation with 90 mM potassium was then evaluated by a time-lapse image acquisition using the Radiance 2000 scanning system and a Nikon eclipse TE200 confocal microscopy.

hippocampal neurons [6] = assay: Neurite outgrowth, hippocampal neurons; format: cell-based, rat
Description: The cultures were subsequently immunostained for tyrosine hydroxylase. Hippocampal neurons and CGN were plated at a density of 10,000 cells/cm^2 on 8-well permanox chamber slides and incubated for 24 hours in the presence of various concentrations of FGLd. Subsequently the neurons were immunostained for GAP-43. Results from at least five independent experiments for each neuronal culture are shown as percentage ±SEM with the untreated controls set at 100%. *p<0.05, **p<0.01, ***p<0.001 when compared to the controls.
Results from at least four independent experiments are shown as percentage SEM with untreated controls set at 100%. **p<0.01 when compared to the controls.
as §1

[7] = system: dissociated hippocampal neurons; assay: OGD, FM 1-43 release in dissociated hippocampal cell cultures; format: cell-based, rat; details: together with FGLd
Text: as §2, §3, §4

[8] = system: dissociated hippocampal neurons; assay: OGD, metabolic activity (MTS) in dissociated hippocampal cell cultures; format: cell-based, rat; details: inhibitor 25 μM together with FGLd for 24 hours before OGD
Text: as §2, §3, §4

[9] = system: cerebellar granule neurons (CGN); assay: Survival of CGN induced to undergo apoptosis by low KCl; details: individual monomer; low KCl
Description: Cerebella granular meurons (CGN) (e and f) from postnatal day 7 rats were grown at a density of 100,000 cells/cm^2 for 7 days on poly-L-lysine coated microtiter plates in the medium containing 40 mM KCl, then the medium was substituted to a 5 mM KCl containing medium supplemented with various concentrations of FGLd.
For the experiments cerebellar tissue was dissected in modified Krebs-Ringer solution kept on ice, and treated as described for the hippocampal neurons above. All cell cultures were incubated at 37° C. in a humidified atmosphere containing 5% CO2.
Primary cultures of CGN were plated at a density of 100,000 cells/cm^2 on poly-L-lysine coated 8-well permanox slides in Neurobasal-A medium (Gibco, BRL) supplemented with 2% (v/v) B27, 0.5% (v/v) glutamax, 100 U/ml penicillin, 100 μg/ml streptomycin and KCl, making the final concentration of KCl in the medium 40 mM. 24 hours after plating, cytosine-β-D-arabinofuranoside (Ara-C; Sigma-Aldrich) was added to a final concentration of 10 μM to avoid proliferation of glial cells, after which the neurons were allowed to differentiate for further six days at 37° C. Apoptotic cell death was induced by washing twice and changing the medium to Basal Medium Eagle (BME; Gibco BRL) supplemented with 1% (v/v) glutamine, 100 U/ml penicillin and 100 μg/ml streptomycin, 3.5 g D-glucose/l and 1% (v/v) sodium pyruvate (Gibco BRL) together with various concentrations of peptide. Thereby the concentration of potassium in the cultures was reduced to 5 mM KCl. Two days after induction of apoptosis, the cells were fixed with 4% formaldehyde and stained with Hoechst 33258 as described for the survival assay employing hippocampal neurons.

rat FGFR1 (IIIC isoform) = molecular target: T1, rat FGFR1 (IIIC isoform) (Rattus norvegicus, UniProt Q04589); assay: Phosphorylation of FGFR1 in transfected HEK293 cells; format: cell-based; details: 20 μg/ml; 20 min; HEK293 cells transfected with rat FGFR1
T1 construct: expressed in transfected cells; host or cells: HEK293 cells, transiently transfected with a pcDNA3.1(+) plasmid (Invitrogen)
Description: The EFL peptide is derived from the Fn 3, 2 module of NCAM and represents the E strand-loop-G strand part of the module. For the experiments the peptide was synthesised as described above. […] The peptide is also capable to bind and stimulate FGFR1 in cells expressing the receptor, wherein the peptide induces the receptor phosphorylation (at concentration 20 μg/ml by more then 300%). Phosphorylation of FGFR1 was studied using the following assay. […] Cells were grown for another 24 hrs in full medium, and then shifted to starvation media (DMEM 1965) overnight. FGFR transfected cells were stimulated for 20 min with the EFL monomer, lysed in 8M urea, 1 mM orthovanadate (in PBS) and purified from the lysate via the His-tag as follows: The lysate was loaded on Ni^2+/NTA-sepharose (Qiagen), washed with lysis buffer plus 10 mM imidazole, and the FGFR was eluted with lysis buffer plus 250 mM imidazole. The purified FGFR was analysed by immunoblotting using anti-pentahis (Qiagen) or anti-phosphotyrosine (PY20, Transduction Laboratories) antibodies. The bands were visualised by chemilumiscense and the band density was measured using a GeneGnome apparatus (SynGene).

T1 sequence (Q04589 22-822): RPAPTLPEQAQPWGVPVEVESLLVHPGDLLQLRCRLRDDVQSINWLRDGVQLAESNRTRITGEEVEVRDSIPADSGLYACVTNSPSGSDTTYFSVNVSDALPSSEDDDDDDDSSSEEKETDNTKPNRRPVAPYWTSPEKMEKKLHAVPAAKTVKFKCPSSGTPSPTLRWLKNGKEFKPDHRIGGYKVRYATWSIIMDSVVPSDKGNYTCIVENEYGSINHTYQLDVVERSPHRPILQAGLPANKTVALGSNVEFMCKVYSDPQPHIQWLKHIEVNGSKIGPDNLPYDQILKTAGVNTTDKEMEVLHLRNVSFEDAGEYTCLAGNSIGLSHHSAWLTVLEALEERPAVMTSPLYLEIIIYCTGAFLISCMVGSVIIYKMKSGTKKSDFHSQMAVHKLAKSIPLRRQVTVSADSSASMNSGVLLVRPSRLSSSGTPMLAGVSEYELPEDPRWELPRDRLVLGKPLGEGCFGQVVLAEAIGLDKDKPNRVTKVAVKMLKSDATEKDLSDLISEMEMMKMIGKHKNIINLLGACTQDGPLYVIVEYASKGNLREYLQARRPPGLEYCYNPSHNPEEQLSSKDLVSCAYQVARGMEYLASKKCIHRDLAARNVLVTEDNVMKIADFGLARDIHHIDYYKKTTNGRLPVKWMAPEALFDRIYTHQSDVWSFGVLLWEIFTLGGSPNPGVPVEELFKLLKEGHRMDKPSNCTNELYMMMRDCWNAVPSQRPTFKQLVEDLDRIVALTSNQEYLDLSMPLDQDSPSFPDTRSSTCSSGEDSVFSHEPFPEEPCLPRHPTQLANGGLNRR

COc1cccc(-c2cc(=O)c3ccccc3o2)c1N [PD98059]
inhibition of FGLd-induced survival of CGN ([1]; 12.5 μM inhibitor): inhibited cell survival induced by FGLd to the level of the control cultures
FGLd-induced neurite outgrowth in CGN in presence of inhibitor ([2]; inhibitor above 25 μM, 10 μg/ml FGLd): 75%
effect on basal neurite outgrowth in CGN [3]: not to affect the basal neurite outgrowth

Cc1c[nH]c(/C=C2\C(=O)Nc3ccccc32)c1CCC(=O)O [SU5402]
PI staining after OGD, pre-incubation with FGFR-inhibitor together with FGLd [4]: the PI staining was similar to that of OGD alone
inhibition of FGLd-induced survival of CGN ([1]; 20 μM inhibitor): significantly inhibited the survival response to FGLd
inhibition of FGLd-induced survival of CGN ([1]; 40 μM inhibitor): reduced the FGLd-induced survival to the survival rate of the untreated apoptosis-induced control neurons
FGLd-induced neurite outgrowth in CGN in presence of inhibitor ([2]; 80 μM inhibitor, 27 μg/ml FGLd): 35%
effect on neurite outgrowth in control CGN cultures not treated with FGLd ([2]; data not shown): without significant effect on neurite outgrowth
effect of FGFR inhibitor on FGLd-increased FM 1-43 destaining (hippocampal neurons [5]): abolished the effect of FGLd
block of EFL-stimulated neuritogenic activity by inhibitor of FGFR1 (hippocampal neurons [6]; with EFL peptide): specifically blocked
effect of FGFR-inhibitor on FGLd action on OGD-induced decrease in FM 1-43 release [7]: abrogated the effect of FGLd
metabolic activity after OGD, FGLd pretreatment with FGFR-inhibitor present [8]: did not diminish the OGD-induced reduction in metabolic activity

NIEVWVEAENALGKKV (Interleukin-6 receptor beta chain [Swiss-Prot: Q00560]: FGFR binding motif) [EFL peptide, individual monomer peptide derived from the Fn 3, 2 module of NCAM]
neurite outgrowth of rat hippocampal neurons (hippocampal neurons [6]; individual monomer): strongly stimulate neurite outgrowth
survival of rat cerebellar neurons [9]: stimulate survival
FGFR1 phosphorylation induced by the peptide (rat FGFR1 (IIIC isoform)): > 300%
